Test results from PMC5920688 (Journal of veterinary pharmacology and therapeutics, 2017).
Entries after “also recorded” stand apart in the source; their conditions may differ.

How the values were obtained:
horses [1] = conditions: 4 mg/kg i.v., ref Toutain et al., 1994; cited from earlier work
horses [2] = conditions: clinical cases, ref Johnson et al., 1993, Raekallio et al., 1997; cited from earlier work
[3] = Plasma pharmacokinetics of t-TUCB after intravenous administration; type: in vivo, horses; conditions: for AUClast (h*ng/mL)/dose: dose-corrected; for AUClast (h*ng/mL)/dose / Clast (last measured plasma concentration) / Tlast (time of last measured plasma concentration) / λz lower / λz upper: mean ± SEM; for Plasma kinetics (order): preliminary
[4] = Synovial fluid t-TUCB concentrations after intravenous administration; type: in vivo; conditions: horses, i.v., 1 mg/kg
[5] = system: horses with lipopolysaccharide-induced radiocarpal synovitis; assay: Pain; type: in vivo; conditions: for Horses qualifying for rescue analgesia if only VAS > 50 at rest had been used: control 5/6; for Proportion of positive-to-negative responses to touch (tactile allodynia): control 1.7; for AUC of AAEP lameness scores compared to control / AUC of visual analog pain scores compared to control: first 12 h and entire 48 h
[6] = system: horses with lipopolysaccharide-induced radiocarpal synovitis; type: in vivo
horses [7] = assay: Physical exam variables, hematology and serum biochemistry; type: in vivo
[8] = system: equine soluble epoxide hydrolase (sEH); conditions: ref Guedes et al., 2016, cited from earlier work
rats = conditions: doses as low as 0.1 mg/kg, ref Wagner et al., 2013; cited from earlier work
[9] = Thoroughbred, Quarter Horse, Dutch Warmblood (mixed group), plasma, iv, 1 mg/kg
[10] = Thoroughbred, Quarter Horse, Dutch Warmblood, plasma, iv, 0.1 mg/kg
[11] = Thoroughbred, Quarter Horse, Dutch Warmblood, plasma, iv, 0.3 mg/kg
[12] = horses, i.v., 0.1 mg/kg, plasma
[13] = horses, i.v., 0.3 mg/kg, plasma

## CCCCC1C(=O)N(c2ccccc2)N(c2ccccc2)C1=O [phenylbutazone]
Horses [1]
  Analgesic effects in carpal Freund's adjuvant arthritis model: not readily demonstrated; also recorded: could not be demonstrated
Horses [2]
  Duration of post-surgical analgesia: < 12 h

## O=C(Nc1ccc(OC(F)(F)F)cc1)N[C@H]1CC[C@H](Oc2ccc(C(=O)O)cc2)CC1 [t-TUCB, trans-4-{4-[3-(4-Trifluoromethoxy-phenyl)-ureido]-cyclohexyloxy}-benzoic acid]
[3]; [9]
  Vd: 0.571 ± 0.104 L/kg
  clearance: 0.233 mL/min/kg
  half-life: 24 ± 5 h
[3]; [10]
  AUC(0-inf): 2000 ± 530 ng·h/mL
  AUC(0-t): 1610 ± 360 ng·h/mL
[3]; [11]
  AUC(0-inf): 6370 ± 526 ng·h/mL
  AUC(0-t): 5840 ± 488 ng·h/mL
[3]; Thoroughbred, Quarter Horse, Dutch Warmblood, plasma, iv, 1 mg/kg
  AUC(0-t): 50100 ± 5600 ng·h/mL
[3]; horses, i.v., 0.1 mg/kg
  AUClast (h*ng/mL)/dose: 16066±3595^a h*ng/mL
[3]; horses, i.v., 0.3 mg/kg
  AUClast (h*ng/mL)/dose: 19467±1625^a h*ng/mL
[3]; horses, i.v., 1 mg/kg
  AUClast (h*ng/mL)/dose: 50139±5604^b h*ng/mL
[3]; horses, i.v., 0.03 mg/kg
  Plasma concentrations: undetectable or very low
[3]; [12]
  Clast (last measured plasma concentration): 17 ± 5 ng/mL
  Tlast (time of last measured plasma concentration): 38 ± 5 h
  λz lower: 8 ± 4 h
  λz upper: 38 ± 5 h
[3]; [13]
  Clast (last measured plasma concentration): 29 ± 3 ng/mL
  Tlast (time of last measured plasma concentration): 48 ± 0 h
  λz lower: 11 ± 5 h
  λz upper: 48 ± 0 h
[3]; horses, i.v., 1 mg/kg, plasma
  Clast (last measured plasma concentration): 538 ± 76 ng/mL
  Tlast (time of last measured plasma concentration): 48 ± 0 h
  λz lower: 14 ± 5 h
  λz upper: 48 ± 0 h
[3]; horses, i.v., 0.1 and 0.3 mg/kg
  Plasma kinetics (order): linear or first order plasma kinetics
[3]; horses, i.v., highest dose (1 mg/kg)
  Plasma kinetics (order): may have approached a non-linear or zero order kinetics
[3]; plasma, iv, 0.1 mg/kg
  clearance: 1.13 mL/min/kg
[3]; plasma, iv, 0.3 mg/kg
  clearance: 0.8 mL/min/kg
[3]; plasma, iv, 1 mg/kg
  AUC(0-inf): 71100 ± 5780 ng·h/mL
  clearance: 0.233 mL/min/kg
  half-life: 24 ± 5 h
[4]
  Synovial fluid concentrations reached: high concentrations
  Synovial fluid t-TUCB concentration, inflamed compared to non-inflamed joint: significantly higher
[5]; 0.03 mg/kg i.v.
  Horses qualifying for rescue analgesia if only VAS > 50 at rest had been used: 5/6
[5]; 0.1 mg/kg i.v.
  Proportion of positive-to-negative responses to touch (tactile allodynia): 0.8
  Horses qualifying for rescue analgesia if only VAS > 50 at rest had been used: 4/6
[5]; 0.3 mg/kg i.v.
  Proportion of positive-to-negative responses to touch (tactile allodynia): 1.3
  Horses qualifying for rescue analgesia if only VAS > 50 at rest had been used: 1/4
[5]; 1 mg/kg i.v.
  Proportion of positive-to-negative responses to touch (tactile allodynia): 0.2
  Horses qualifying for rescue analgesia if only VAS > 50 at rest had been used: 2/5
  AUC of AAEP lameness scores compared to control: significantly lower
  AUC of visual analog pain scores compared to control: significantly lower
[5]; 0.1 and 0.3 mg/kg i.v.
  AUC of AAEP lameness scores compared to control: not the others
  AUC of visual analog pain scores compared to control: not the others
[6]; 1 mg/kg i.v., at 36 h
  Carpus circumference compared to control: reaching statistical significance
[6]; 0.1-1 mg/kg i.v.
  Anti-inflammatory activity (inflammatory cell numbers, joint effusion, protein concentration): no important anti-inflammatory effects; also recorded: negligible anti-inflammatory activity
[6]; 0.3 and 1 mg/kg i.v.
  Carpus circumference compared to the remaining treatments: increased slightly less
Horses [7]; 0.03-1 mg/kg i.v.
  Adverse effects on physical and laboratory examinations: No adverse effects were observed
Horses [7]; 0.1, 0.3 and 1 mg/kg i.v., after LPS
  Effect of treatment on respiratory rate, heart rate and mean arterial pressure: not of treatment
Horses [7]; all treatments (0.03-1 mg/kg i.v.)
  Hematology and serum biochemistry results: within the normal laboratory reference range
[8]; equine sEH
  In vitro 95% inhibitory concentration (IC95): 0.0964 µg/mL
[8]; in vitro, Wagner et al., 2013
  Potency against equine sEH compared to rat sEH: approximately 3 fold
rats
  Mechanical hyperalgesia to intra-plantar LPS: significantly attenuated
